Data: ChEMBL document CHEMBL4627278, “Discovery of 2-aminoisobutyric acid ethyl ester (AIBEE) phosphoramidate prodrugs for delivering nucleoside HCV NS5B polymerase inhibitors” (Bioorg Med Chem Lett, 2020)
In brackets after ≈: the same amount, converted by molar mass.

Legend:
[1] = Prodrug conversion in dog liver assessed as nucleotide triphosphate level at 5 mg/kg, po after 4 hrs; format: ADME, organism-based, Canis lupus familiaris; conditions: in vivo
[2] = Prodrug conversion in dog liver assessed as 1-((2R,3R,4R,5R)-3-bromo-3-chloro-4-hydroxy-5-(hydroxymethyl)tetrahydrofuran-2-yl)pyrimidine-2,4(1H,3H)-dione level at 5 mg/kg, po after 24 hrs; format: ADME, organism-based, Canis lupus familiaris; conditions: in vivo
[3] = Prodrug conversion in dog liver assessed as 2-((((2R,3R,4R,5R)-4-bromo-4-chloro-5-(2,4-dioxo-3,4-dihydropyrimidin-1(2H)-yl)-3-hydroxytetrahydrofuran-2-yl)methoxy)(hydroxy)phosphorylamino)-2-methylpropanoic acid level at 5 mg/kg, po after 4 hrs; format: ADME, organism-based, Canis lupus familiaris; conditions: in vivo
[4] = Stability in dog plasma assessed as parent compound remaining after 4 hrs; format: ADME, cell-free, Canis lupus familiaris; conditions: read-out: Stability
[5] = Prodrug conversion in dog liver assessed as nucleotide triphosphate level at 5 mg/kg, po co-dosed with 5 mg/kg sofosbuvir after 24 hrs; format: ADME, organism-based, Canis lupus familiaris; conditions: in vivo
[6] = Prodrug conversion in dog liver assessed as nucleotide triphosphate level at 5 mg/kg, po measured after 24 hrs; format: ADME, organism-based, Canis lupus familiaris; conditions: in vivo
[7] = Aqueous solubility of compound at pH 7.4; format: physicochemical; conditions: buffer
[8] = Prodrug conversion in dog liver assessed as 2-((((2R,3R,4R,5R)-4-bromo-4-chloro-5-(2,4-dioxo-3,4-dihydropyrimidin-1(2H)-yl)-3-hydroxytetrahydrofuran-2-yl)methoxy)(hydroxy)phosphorylamino)-2-methylpropanoic acid level at 5 mg/kg, po after 24 hrs; format: ADME, organism-based, Canis lupus familiaris; conditions: in vivo
[9] = Stability in human plasma assessed as parent compound remaining after 4 hrs; format: ADME, cell-free; conditions: read-out: Stability
[10] = Prodrug conversion in human hepatocytes assessed as nucleotide triphosphate level at 100 uM incubated for 4 hrs followed by compound washout and further incubated in fresh media for 24 hrs; format: ADME, cell-based, Hepatocyte
[11] = Prodrug conversion in dog liver assessed as nucleotide triphosphate level at 5 mg/kg, po co-dosed with 5 mg/kg sofosbuvir after 4 hrs; format: ADME, organism-based, Canis lupus familiaris; conditions: in vivo
[12] = Prodrug conversion in dog liver assessed as (2S)-2-((((2R,3R,4R,5R)-4-bromo-4-chloro-5-(2,4-dioxo-3,4-dihydropyrimidin-1(2H)-yl)-3-hydroxytetrahydrofuran-2-yl)methoxy)(hydroxy)phosphorylamino)propanoic acid level at 5 mg/kg, po after 24 hrs; format: ADME, organism-based, Canis lupus familiaris; conditions: in vivo
[13] = Half life in human hepatocytes; format: ADME, cell-based, Hepatocyte
[14] = Prodrug conversion in dog liver assessed as 1-((2R,3R,4R,5R)-3-bromo-3-chloro-4-hydroxy-5-(hydroxymethyl)tetrahydrofuran-2-yl)pyrimidine-2,4(1H,3H)-dione level at 5 mg/kg, po after 4 hrs; format: ADME, organism-based, Canis lupus familiaris; conditions: in vivo
[15] = Prodrug conversion in human hepatocytes assessed as nucleotide triphosphate level at 100 uM after 4 hrs; format: ADME, cell-based, Hepatocyte
[16] = Prodrug conversion in dog liver assessed as (2S)-2-((((2R,3R,4R,5R)-4-bromo-4-chloro-5-(2,4-dioxo-3,4-dihydropyrimidin-1(2H)-yl)-3-hydroxytetrahydrofuran-2-yl)methoxy)(hydroxy)phosphorylamino)propanoic acid level at 5 mg/kg, po after 4 hrs; format: ADME, organism-based, Canis lupus familiaris; conditions: in vivo
[17] = Intrinsic clearance in human hepatocytes; format: ADME, cell-based, Hepatocyte; conditions: read-out: CLH (converted)
[18] = Lipophilicity, log D of compound; format: physicochemical; conditions: octanol/water
[19] = Cytotoxicity against human HuH7 cells assessed as reduction in cell viability; format: cell-based, Huh-7; conditions: read-out: TD50 (the source's name)

| Drug metabolism [1] [µg/g] | Drug metabolism [2] [µg/g] | Drug metabolism [3] [µg/g] | remaining at 4 h [4] [%] | Drug metabolism [5] [µg/g] | Drug metabolism [6] [µg/g] | solubility [7] [µM] | Drug metabolism [8] [µg/g] | remaining at 4 h [9] [%] | Drug metabolism [10] [µM] | Drug metabolism [11] [µg/g] | Drug metabolism [12] [µg/g] | half-life [13] [min] | Drug metabolism [14] [µg/g] | Drug metabolism [15] [µM] | Drug metabolism [16] [µg/g] | CLint scaled [17] [mL/min/kg] | SMILES | logD [18] | CC50 [19] [µM] |
| --- | --- | --- | --- | --- | --- | --- | --- | --- | --- | --- | --- | --- | --- | --- | --- | --- | --- | --- | --- |
| 0.088 | 0.011 | 0.066 | 92 | 1.02 | 0.049 | 23 (≈ 14 µg/mL) | 0.006 | 92 | 22 | 1.59 | 0.006 | 15 | 1.469 | 110 | 0.066 | 273 | CC(C)OC(=O)[C@H](C)N[P@](=O)(OC[C@H]1O[C@@H](n2ccc(=O)[nH]c2=O)[C@](Cl)(Br)[C@@H]1O)Oc1ccccc1 | 3.51 | 62 |
| – | – | – | – | – | – | – | – | – | 39 | – | – | > 30 | – | 738 | – | 185 | CCOC(=O)[C@H](C)N[P@@](=O)(OC[C@H]1O[C@@H](n2ccc(=O)[nH]c2=O)[C@](Cl)(Br)[C@@H]1O)Oc1ccccc1 | – | – |
| 0.143 | 0.009 | 0.644 | – | 1.26 | 0.036 | > 200 | < 0.005 | – | 24 | 1.76 | < 0.005 | > 30 | 0.501 | 107 | 0.644 | 202 | CC(C)OC(=O)[C@H](C)N[P@@](=O)(OC[C@H]1O[C@@H](n2ccc(=O)[nH]c2=O)[C@](Cl)(Br)[C@@H]1O)Oc1ccccc1 | – | – |
| 1.24 | < 0.025 | 0.357 | 93 | 3.18 | 0.629 | – | 0.007 | 86 | – | 3.87 | 0.007 | – | 0.821 | – | 0.357 | – | CCOC(=O)[C@H](C)NP(=O)(OC[C@H]1O[C@@H](n2ccc(=O)[nH]c2=O)[C@](Cl)(Br)[C@@H]1O)Oc1ccccc1 (some centres not stated) | – | – |
| 0.329 | 0.038 | – | 84 | – | 0.188 | > 200 | – | 87 | 31 | – | – | > 30 | 0.187 | 465 | – | 242 | COCC(C)OC(=O)[C@H](C)NP(=O)(OC[C@H]1O[C@@H](n2ccc(=O)[nH]c2=O)[C@](Cl)(Br)[C@@H]1O)Oc1ccccc1 (some centres not stated) | – | – |
| – | – | – | – | – | – | – | – | – | 18 | – | – | > 30 | – | 90 | – | 152 | CCOC(=O)[C@H](C)N[P@](=O)(OC[C@H]1O[C@@H](n2ccc(=O)[nH]c2=O)[C@](Cl)(Br)[C@@H]1O)Oc1ccccc1 | – | – |

The remaining lines, values behind:

| SMILES | Drug metabolism [1] [µg/g] | Drug metabolism [2] [µg/g] | Drug metabolism [3] [µg/g] | remaining at 4 h [4] [%] | Drug metabolism [5] [µg/g] | Drug metabolism [6] [µg/g] | solubility [7] [µM] | Drug metabolism [8] [µg/g] | remaining at 4 h [9] [%] | Drug metabolism [10] [µM] | Drug metabolism [11] [µg/g] | Drug metabolism [12] [µg/g] | half-life [13] [min] | Drug metabolism [14] [µg/g] | Drug metabolism [15] [µM] | Drug metabolism [16] [µg/g] | CLint scaled [17] [mL/min/kg] | logD [18] | CC50 [19] [µM] |
| --- | --- | --- | --- | --- | --- | --- | --- | --- | --- | --- | --- | --- | --- | --- | --- | --- | --- | --- | --- |
| CC(C)C(=O)OC[C@H](C)NP(=O)(OC[C@H]1O[C@@H](n2ccc(=O)[nH]c2=O)[C@](Cl)(Br)[C@@H]1O)Oc1ccccc1 (some centres not stated) | 0.252 | 0.006 | 0.151 | 54 | 1.12 | 0.037 | > 200 | < 0.005 | 0 | 32 | 3.04 | < 0.005 | > 30 | 0.177 | 2377 | 0.151 | – | – | – |
| CC(C)OC(=O)C(C)(C)NP(=O)(OC[C@H]1O[C@@H](n2ccc(=O)[nH]c2=O)[C@](Cl)(Br)[C@@H]1O)Oc1ccccc1 (some centres not stated) | 0.713 | 0.04 | – | 104 | 3.43 | 0.244 | > 200 | – | 109 | 40 | 4.2 | – | > 30 | 0.252 | 157 | – | 192 | – | – |
| CC(C)OC(=O)[C@H](C)N[P@](=O)(OC[C@H]1O[C@@H](n2ccc(=O)[nH]c2=O)[C@](Cl)(Br)[C@@H]1OC(=O)[C@@H](N)C(C)C)Oc1cccc2ccccc12 | – | – | – | – | – | – | 4 (≈ 3.04 µg/mL) | – | – | – | – | – | > 30 | – | – | – | – | – | – |
| CCOC(=O)C(C)(C)NP(=O)(OC[C@H]1O[C@@H](n2ccc(=O)[nH]c2=O)[C@](Cl)(Br)[C@@H]1O)Oc1ccccc1 (some centres not stated) | 14.73 | 0.192 | 0.232 | 111 | 3.47 | 4.56 | > 200 | 0.065 | 103 | 43 | 4.02 | 0.065 | > 30 | 1.335 | 2114 | 0.232 | 685 | – | – |
| CC(C)OC(=O)[C@H](C)N[P@](=O)(OC[C@H]1O[C@@H](n2ccc(=O)[nH]c2=O)[C@](Cl)(Br)[C@@H]1OC(=O)[C@@H](N)C(C)C)Oc1ccccc1 | 0.828 | 0.029 | 0.359 | – | 2.89 | 0.409 | > 200 | 0.006 | – | 24 | 3.1 | 0.006 | > 30 | 0.341 | 169 | 0.359 | – | – | – |
| COCC(=O)OC[C@H](C)NP(=O)(OC[C@H]1O[C@@H](n2ccc(=O)[nH]c2=O)[C@](Cl)(Br)[C@@H]1O)Oc1ccccc1 (some centres not stated) | – | – | – | – | – | – | – | – | – | 16 | – | – | > 30 | – | 120 | – | 223 | – | – |
| CC(C)OC(=O)[C@H](C)N[P@](=O)(OC[C@H]1O[C@@H](n2ccc(=O)[nH]c2=O)[C@](Cl)(Br)[C@@H]1O)Oc1cccc2ccccc12 | – | – | – | – | – | – | 17 (≈ 11.2 µg/mL) | – | – | 9 | – | – | > 30 | – | 81 | – | 575 | – | – |
| COCC(C)C(=O)OC[C@H](C)NP(=O)(OC[C@H]1O[C@@H](n2ccc(=O)[nH]c2=O)[C@](Cl)(Br)[C@@H]1O)Oc1ccccc1 (some centres not stated) | – | – | – | – | – | – | – | – | – | 24 | – | – | > 30 | – | 188 | – | 282 | – | – |
| COc1cccc(O[P@](=O)(N[C@@H](C)C(=O)OC(C)C)OC[C@H]2O[C@@H](n3ccc(=O)[nH]c3=O)[C@](Cl)(Br)[C@@H]2O)c1 | – | – | – | – | – | – | 20 (≈ 12.8 µg/mL) | – | – | 14 | – | – | > 30 | – | 35 | – | 335 | – | – |
| CC(C)OC(=O)[C@H](C)N[P@](=O)(OC[C@H]1O[C@@H](n2ccc(=O)[nH]c2=O)[C@](C)(F)[C@@H]1O)Oc1ccccc1 [SOFOSBUVIR] | – | – | – | – | – | – | > 200 | – | – | 122 | – | – | 120 | – | 97 | – | 71.7 | 3.02 | > 100 |
